Results published in patent US20060089302A1, “Hsp70-derived peptides and uses thereof in the diagnosis and treatment of autoimmune diseases” (priority 2002, published 2006).
“And” between values parts separate entries of the source, which are not always exact repeats. Identical values can stand only once.

Assays:
[1] = tested on: peripheral blood mononuclear cells (PBMC) / T-cells; experiment: T-cell proliferation assay (3H-Thymidine incorporation, stimulation index); format: cell-based, human; settings: for T-cell reactivity to hsp70 peptide (epitope mapping): seven Type 1 Diabetes patients (P3, P16, P18, P20, P21, P23, P24), immunogenic when at least 3 out of 7 patients had S.I.≥2; for T-cell reactivity to hsp70 peptide (epitope mapping) / Number of Type 1 Diabetes subjects responding to the peptide: peptide 5-20 μg/ml; for Number of Type 1 Diabetes subjects responding to the peptide: epitope mapping, seven subjects tested (p1: three of these plus two adult patients), S.I.≥2; for T-cell proliferative response, S.I., Mean ± SD: group mean
[2] = tested on: serum IgG anti-hsp60, anti-hsp70, anti-hsp90, anti-tetanus toxoid; experiment: Determination of auto-antibodies (antibody capture ELISA on antigen-coated plates); format: binding, human; settings: for IgG antibodies to the antigen in serum, Mean ± SD: group mean
Experimental: All of the serum samples that were collected were stored in aliquotes at −20° C. and thawed before each assay. Total human IgG anti-hsp60, anti-hsp70, and anti-hsp90, as well as anti-tetanus toxoid proteins were detected by the antibody capture-type enzyme immunoassay ELISA [Maggio, M. T. (1981) Enzyme Immunoassay, CRC Press, Boca Raton, USA]. 96-well micro titer plates (Dynatech) were coated with the protein according to the antibody being tested. Serum samples were distributed at dilutions in the range of 1:50 to 1:70 into the pre-coated wells for the protein detection assay. Thus, any IgG anti-hsp60, anti-hsp70, anti-hsp90, or anti-tetanus toxoid present should be bound by the immobilized peptide or protein. After washing off unbound material, a mouse monoclonal anti-human IgG antibody conjugated to alkaline phosphatase (AP) was added to the wells. After an additional washing step to remove any unbound anti-enzyme reagent, the AP substrate p-nitrophenyl phosphate (pNPP) solution was added. The intensity of the color developed was measured using an Anthos htll ELISA reader at λ=405 nm. The amount of antibody detected was represented as Units of Optical Density at λ=405 nm. Patients and control subjects were assayed in the same experiment.
The InStat 2.01 computer program was used for the statistical analysis. The results obtained from the samples of healthy individuals were used to determine the cutoff for each assay, which was established as the mean plus two standard deviations (SDs). […] The results were presented as the percentage of positive from the total tested group.
Levels of IgG antibodies to hsp60, hsp70, and hsp90 were measured in the sera of 20 Type 1 Diabetes children (P1-P5, P7-P21; Table 3A) and two control groups, 10 normoglycemic children (Table 3B) and 15 healthy adult blood donors (Table 3C). The level of the antibodies was scored as positive when it was greater than the cut-off level (cut-off levels were established based on the mean value of antibody levels from the normoglycemic children plus two standard deviations).

[3] = healthy subjects / healthy blood donors
[4] = Type 1 diabetes children (n=20), cut-off = mean of normoglycemic children plus two SD
[5] = healthy adult blood donors (n=15)
[6] = pediatric control serum donors / healthy children (n=10)

For “KANKITITNDKGRLSKEEIE (listed as Homo sapiens) [p34, human hsp70 residues 496-515]”, the “T-cell reactivity to hsp70 peptide (epitope mapping)” value (from here on “T-cell reactivity to hsp70 peptide”) [1] was “triggered a T-cell response”.
With “KEEIERMVQEAEKYKAEDEV (listed as Homo sapiens) [p35, human hsp70 residues 511-530]” the “Number of Type 1 Diabetes subjects responding to the peptide” value (“Number” below) [1] was “five” and the “T-cell reactivity to hsp70 peptide” value [1] was “triggered a T-cell response”.
With “KRTLSSSTQASLEIDSLFEG (listed as Homo sapiens) [p19, human hsp70 residues 271-290]” the “T-cell reactivity to hsp70 peptide” value [1] was “triggered a T-cell response”.
For “LLLLDVAPLSLGLETAGGVM (listed as Homo sapiens) [p27, human hsp70 residues 391-410]”, the “Number” value [1] was “six out of seven” and the “T-cell reactivity to hsp70 peptide” value [1] was “triggered a T-cell response”.
“MAKAAAVGIDLGTTYSCVGV (listed as Homo sapiens) [p1, human hsp70 residues 1-20]” was tested, and the “Number” value [1] was “five” and the “T-cell reactivity to hsp70 peptide” value [1] was “triggered a T-cell response”.
For “PTKQTQIFTTYSDNQPGVLI (listed as Homo sapiens) [p29, human hsp70 residues 421-440]”, the “T-cell reactivity to hsp70 peptide” value [1] was “triggered a T-cell response”.
For “THLGGEDFDNRLVNHFVEEF (listed as Homo sapiens) [p16, human hsp70 residues 225-244]”, the “T-cell reactivity to hsp70 peptide” value [1] was “triggered a T-cell response”.
“TIDDGIFEVKATAGDTHLGG (listed as Homo sapiens) [p15, human hsp70 residues 210-229]” was tested, and the “T-cell reactivity to hsp70 peptide” value [1] was “triggered a T-cell response”.
“Tetanus Toxoid: recall antigen Tetanus Toxoid (Connaught Lab. Inc, Penn., USA) [reference compound]” was tested, and the “T-cell proliferative response, S.I., Mean ± SD” value ([1]; Healthy subjects) was 8.01 ± 9.3, the “T-cell proliferative response, S.I., Mean ± SD” value ([1]; Healthy subjects, listed as tetanus toxoid) was 9.4±6.4 and the “T-cell proliferative response, S.I., Mean ± SD” value ([1]; Type 1 Diabetes adult patients) was 14.3 ± 22.86. The “T-cell proliferative response, S.I., Mean ± SD” value ([1]; Type 1 Diabetes children) was 17.2±16.1, the “T-cell proliferative response, S.I., Mean ± SD” value ([1]; Type 1 Diabetes children, listed as T.T.) was 17.2 ± 15.9 and the “T-cell proliferative response, S.I., Mean ± SD” value ([1]; Type 2 Diabetes patients) was 4.4. For the same substance, the “T-cell proliferative response, S.I., Mean ± SD” value ([1]; Type 2 Diabetes patients, listed as tetanus toxoid) was 4.4±2.9 and the “Serum antibodies to control antigen, in words” value ([2]; Type 1 Diabetes and control groups) was “comparably high”.
“hsp70: recombinant human hsp70 (StressGen, Canada), intact heat-shock protein” was tested, and the “T-cell proliferative response, S.I., Mean ± SD” value ([1]; Healthy subjects) was 1.4±0.6 and 1.45±0.6 and 1.44 ± 0.6, the “T-cell proliferative response, S.I., Mean ± SD” value ([1]; Type 1 Diabetes adult patients) was 2.6+0.84 and 2.6 ± 0.84 and the “Responding subjects (S.I.≥2)” value ([1]; Type 1 Diabetes adult patients, within 12 weeks from diagnosis) was “about 86%”. For the same substance, the “Responding subjects (S.I.≥2)” value ([1]; Type 1 Diabetes children) was 85%, the “Responding subjects (S.I.≥2)” value ([1]; Type 2 Diabetes patients) was 27% and the “T-cell proliferative response, S.I., Mean ± SD” value ([1]; Type 2 Diabetes patients) was 1.8±1.3 and 1.8 ± 1.26. For the same substance, the “Responding subjects (S.I.≥2)” value [1, 3] was 14% and 13%, the “IgG antibodies to the antigen in serum, Mean ± SD” value (from here on “IgG antibodies … Mean ± SD”) ([2]; Type 1 Diabetes children) was 0.5 ± 0.41 Units of Optical Density at λ=405 nm and the “Positive (antibody level above cut-off)” value [2, 4] was 30%. The “Positive (antibody level above cut-off)” value ([2]; Type 1 diabetes children (n=20), cut-off = mean of normoglycemic children plus two SD, listed as Hsp70) was 30%, the “Positive (antibody level above cut-off)” value [2, 5] was 6% and the “Positive (antibody level above cut-off)” value ([2]; healthy adult blood donors (n=15), listed as Hsp70) was 6.6%. The “IgG antibodies … Mean ± SD” value ([2]; healthy adult blood donors) was 0.43 ± 0.1 Units of Optical Density at λ=405 nm, the “Positive (antibody level above cut-off)” value [2, 6] was “none” and the “Positive (antibody level above cut-off)” value ([2]; pediatric control serum donors / healthy children (n=10), listed as Hsp70) was 0%. The “IgG antibodies … Mean ± SD” value ([2]; pediatric control serum donors) was 0.35 ± 0.09 Units of Optical Density at λ=405 nm.
In the case of “hsp90: recombinant human hsp90 (StressGen, Canada), heat-shock protein”, the “T-cell proliferative response, S.I., Mean ± SD” value ([1]; Healthy subjects) is reported as 1.52±0.7, the “T-cell response, in words” value ([1]; Type 1 Diabetes adult patients (Table 1D), tested after more than 12 weeks) is reported as “No response” and the “T-cell proliferative response, S.I., Mean ± SD” value ([1]; Type 1 Diabetes adult patients) is reported as 1.4 ± 0.3. For the same substance, the “Responding subjects (S.I.≥2)” value ([1]; Type 1 Diabetes children) was 21%, the “T-cell proliferative response, S.I., Mean ± SD” value ([1]; Type 1 Diabetes children) was 1.7±1.2 and 1.7 ± 1.1 and the “Responding subjects (S.I.≥2)” value ([1]; Type 2 Diabetes patients) was 9%. The “T-cell proliferative response, S.I., Mean ± SD” value ([1]; Type 2 Diabetes patients) was 1.6±1.4 and 1.6 ± 1.38, the “Responding subjects (S.I.≥2)” value [1, 3] was 25% and the “IgG antibodies … Mean ± SD” value ([2]; Type 1 Diabetes children) was 0.47 ± 0.13 Units of Optical Density at λ=405 nm. The “Positive (antibody level above cut-off)” value [2, 4] was 15%, the “Positive (antibody level above cut-off)” value ([2]; Type 1 diabetes children (n=20), cut-off = mean of normoglycemic children plus two SD, listed as Hsp90) was 15% and the “Positive (antibody level above cut-off)” value [2, 5] was 6%. The “Positive (antibody level above cut-off)” value ([2]; healthy adult blood donors (n=15), listed as Hsp90) was 6.6%, the “IgG antibodies … Mean ± SD” value ([2]; healthy adult blood donors) was 0.46 ± 0.1 Units of Optical Density at λ=405 nm and the “Positive (antibody level above cut-off)” value [2, 6] was “none”. The “Positive (antibody level above cut-off)” value ([2]; pediatric control serum donors / healthy children (n=10), listed as Hsp90) was 0% and the “IgG antibodies … Mean ± SD” value ([2]; pediatric control serum donors) was 0.43 ± 0.1 Units of Optical Density at λ=405 nm.
